Measured values from PubChem BioAssay AID2060340 (Molecular Pharmacology Branch, DTP, NCI, 2025).
Values joined by “and” are separate entries in the source; they are usually repeats but may differ in a detail not shown here. Equal values may be shown once.

Test system: 349418-098-R-PDC spheroids, viability, % test/control
Experiment: Anticancer human tumor 349418-098-R-PDC patient-derived lung adenocarcinoma cell line growth inhibition [IpAb]
Conditions: spheroids with HUVEC and MSC; for viability, T/C: stronger effect = lower value
How it was run: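 Multi-cell spheroids of 60% tumour cells, 25% HUVEC and 15% MSC in ultra-low-attachment U-bottom wells, treated with agents combined with ipatasertib or abemaciclib. Half-log ranges top out near clinical Cmax, or 10 microM when Cmax is unknown.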

[1] = curve of first compound, second compound 0.1 µM
[2] = curve of first compound, second compound 0.316 µM
[3] = curve of first compound, second compound 1 µM
[4] = curve of first compound, second compound 3.16 µM
[5] = curve of first compound, second compound 10 µM
[6] = second compound 0.1 µM, first compound 0.0316 µM
[7] = second compound 0.1 µM, first compound 0.1 µM
[8] = second compound 0.1 µM, first compound 0.316 µM
[9] = second compound 0.1 µM, first compound 1 µM
[10] = second compound 0.1 µM, first compound 3.16 µM
[11] = second compound 0.1 µM, first compound 10 µM
[12] = second compound 0.316 µM, first compound 0.0316 µM
[13] = second compound 0.316 µM, first compound 0.1 µM
[14] = second compound 0.316 µM, first compound 0.316 µM
[15] = second compound 0.316 µM, first compound 1 µM
[16] = second compound 0.316 µM, first compound 3.16 µM
[17] = second compound 0.316 µM, first compound 10 µM
[18] = second compound 1 µM, first compound 0.0316 µM
[19] = second compound 1 µM, first compound 0.1 µM
[20] = second compound 1 µM, first compound 0.316 µM
[21] = second compound 1 µM, first compound 1 µM
[22] = second compound 1 µM, first compound 3.16 µM
[23] = second compound 1 µM, first compound 10 µM
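Note: spheroids exposed to compounds for 7 days.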

CC1(C)CCC(CN2CCN(c3ccc(C(=O)NS(=O)(=O)c4ccc(NCC5CCOCC5)c([N+](=O)[O-])c4)c(Oc4cnc5[nH]ccc5c4)c3)CC2)=C(c2ccc(Cl)cc2)C1 + CC(C)NCC(C(=O)N1CCN(c2ncnc3c2C(C)CC3O)CC1)c1ccc(Cl)cc1
IC50 [1]: 3820 nM | IC50 [2]: 326 nM | IC50 [3]: < 31.6 nM | IC50 [4]: < 31.6 nM | IC50 [5]: < 31.6 nM | viability, T/C [6]: 99.2% | viability, T/C [7]: 96.5% | viability, T/C [8]: 97.8% | viability, T/C [9]: 78% | viability, T/C [10]: 60.6% | viability, T/C [11]: 7.06% | viability, T/C [12]: 64.7% | viability, T/C [13]: 49.4% | viability, T/C [14]: 50.6% | viability, T/C [15]: 40.1% | viability, T/C [16]: 31.4% | viability, T/C [17]: 5.53% | viability, T/C [18]: 30% | viability, T/C [19]: 29.5% | viability, T/C [20]: 27.3% | viability, T/C [21]: 20.4% | viability, T/C [22]: 16% | viability, T/C [23]: 4.15% | viability, T/C (second compound 3.16 µM, first compound 0.0316 µM): 13.3% | viability, T/C (second compound 3.16 µM, first compound 0.1 µM): 13% | viability, T/C (second compound 3.16 µM, first compound 0.316 µM): 11.5% | viability, T/C (second compound 3.16 µM, first compound 1 µM): 12.3% | viability, T/C (second compound 3.16 µM, first compound 3.16 µM): 8.4% | viability, T/C (second compound 3.16 µM, first compound 10 µM): 3.13% | viability, T/C (second compound 10 µM, first compound 0.0316 µM): 8.33% | viability, T/C (second compound 10 µM, first compound 0.1 µM): 8.41% | viability, T/C (second compound 10 µM, first compound 0.316 µM): 8.13% | viability, T/C (second compound 10 µM, first compound 1 µM): 7.39% | viability, T/C (second compound 10 µM, first compound 3.16 µM): 5.52% | viability, T/C (second compound 10 µM, first compound 10 µM): 2.19%

C=CCn1c(=O)c2cnc(Nc3ccc(N4CCN(C)CC4)cc3)nc2n1-c1cccc(C(C)(C)O)n1 + CCN1CCN(Cc2ccc(Nc3ncc(F)c(-c4cc(F)c5nc(C)n(C(C)C)c5c4)n3)nc2)CC1
IC50 (curve of first compound, second compound 0.01 µM): 164 nM | IC50 (curve of first compound, second compound 0.0316 µM): 101 nM | IC50 [1]: < 31.6 nM | IC50 [2]: < 31.6 nM | IC50 [3]: < 31.6 nM | viability, T/C (second compound 0.01 µM, first compound 0.0316 µM): 78.5% | viability, T/C (second compound 0.01 µM, first compound 0.1 µM): 76.4% | viability, T/C (second compound 0.01 µM, first compound 0.316 µM): 15.1% | viability, T/C (second compound 0.01 µM, first compound 1 µM): 5.22% | viability, T/C (second compound 0.01 µM, first compound 3.16 µM): 4.65% | viability, T/C (second compound 0.01 µM, first compound 10 µM): 5.36% | viability, T/C (second compound 0.0316 µM, first compound 0.0316 µM): 65.1% | viability, T/C (second compound 0.0316 µM, first compound 0.1 µM): 50.2% | viability, T/C (second compound 0.0316 µM, first compound 0.316 µM): 13.4% | viability, T/C (second compound 0.0316 µM, first compound 1 µM): 6.17% | viability, T/C (second compound 0.0316 µM, first compound 3.16 µM): 4.95% | viability, T/C (second compound 0.0316 µM, first compound 10 µM): 4.75% | viability, T/C [6]: 38.4% | viability, T/C [7]: 30% | viability, T/C [8]: 13.3% | viability, T/C [9]: 7% | viability, T/C [10]: 6.21% | viability, T/C [11]: 5.25% | viability, T/C [12]: 23.6% | viability, T/C [13]: 20.2% | viability, T/C [14]: 14.4% | viability, T/C [15]: 10% | viability, T/C [16]: 7.67% | viability, T/C [17]: 6.46% | viability, T/C [18]: 17.9% | viability, T/C [19]: 15.5% | viability, T/C [20]: 11.4% | viability, T/C [21]: 9.92% | viability, T/C [22]: 6.96% | viability, T/C [23]: 5.12%

CC(C)(C)c1cnc(CSc2cnc(NC(=O)C3CCNCC3)s2)o1
viability, T/C (compound 0.00949 µM): 105% and 108% | viability, T/C (compound 0.03 µM): 90.5% and 85.3% | viability, T/C (compound 0.0949 µM): 2.46% and 15.2% | viability, T/C (compound 0.3 µM): 2.23% and 2.41% | viability, T/C (compound 0.949 µM): 3.07% and 3.11% | viability, T/C (compound 3 µM): 2.08% and 2.15% | IC50 (curve of compound): 50.9 nM and 53.6 nM

CC(=O)c1c(C)c2cnc(Nc3ccc(N4CCNCC4)cn3)nc2n(C2CCCC2)c1=O + CC(C)NCC(C(=O)N1CCN(c2ncnc3c2C(C)CC3O)CC1)c1ccc(Cl)cc1
IC50 [1]: 8.74 nM | IC50 [2]: < 0.949 nM | IC50 [3]: < 0.949 nM | IC50 [4]: < 0.949 nM | IC50 [5]: < 0.949 nM | viability, T/C (second compound 0.1 µM, first compound 0.000949 µM): 76.3% | viability, T/C (second compound 0.1 µM, first compound 0.003 µM): 74.8% | viability, T/C (second compound 0.1 µM, first compound 0.00949 µM): 44% | viability, T/C (second compound 0.1 µM, first compound 0.03 µM): 29.3% | viability, T/C (second compound 0.1 µM, first compound 0.0949 µM): 14.4% | viability, T/C (second compound 0.1 µM, first compound 0.3 µM): 12.1% | viability, T/C (second compound 0.316 µM, first compound 0.000949 µM): 40.5% | viability, T/C (second compound 0.316 µM, first compound 0.003 µM): 43.2% | viability, T/C (second compound 0.316 µM, first compound 0.00949 µM): 23.8% | viability, T/C (second compound 0.316 µM, first compound 0.03 µM): 15.5% | viability, T/C (second compound 0.316 µM, first compound 0.0949 µM): 8.84% | viability, T/C (second compound 0.316 µM, first compound 0.3 µM): 8.96% | viability, T/C (second compound 1 µM, first compound 0.000949 µM): 19.5% | viability, T/C (second compound 1 µM, first compound 0.003 µM): 13.5% | viability, T/C (second compound 1 µM, first compound 0.00949 µM): 9.63% | viability, T/C (second compound 1 µM, first compound 0.03 µM): 7.98% | viability, T/C (second compound 1 µM, first compound 0.0949 µM): 7.69% | viability, T/C (second compound 1 µM, first compound 0.3 µM): 7.53% | viability, T/C (second compound 3.16 µM, first compound 0.000949 µM): 11.4% | viability, T/C (second compound 3.16 µM, first compound 0.003 µM): 9.48% | viability, T/C (second compound 3.16 µM, first compound 0.00949 µM): 8.85% | viability, T/C (second compound 3.16 µM, first compound 0.03 µM): 6.09% | viability, T/C (second compound 3.16 µM, first compound 0.0949 µM): 6.21% | viability, T/C (second compound 3.16 µM, first compound 0.3 µM): 7.07% | viability, T/C (second compound 10 µM, first compound 0.000949 µM): 7.89% | viability, T/C (second compound 10 µM, first compound 0.003 µM): 6.96% | viability, T/C (second compound 10 µM, first compound 0.00949 µM): 5.33% | viability, T/C (second compound 10 µM, first compound 0.03 µM): 5.56% | viability, T/C (second compound 10 µM, first compound 0.0949 µM): 5.75% | viability, T/C (second compound 10 µM, first compound 0.3 µM): 5.61%
